System: OCI-AML3 target cells
Assay: effect of TGF-beta and galunisertib on NK cell cytotoxicity (FIG. 11)
Assay type: cell-based
Settings: 72 hours, NK cells expanded with K562 mbIL-21, 5:1 NK:target
Method: NK cell cytotoxic function was assessed by measuring the number of live cells identified by calcein-AM (CAM) labeling. Target cells and NK cells were labeled with CAM (BD Pharmingen, San Jose, Calif.) and calcein-violet (CV) (eBioscience from ThermoFisher), respectively for approximately 15 minutes in the dark at room temperature. NK cells were co-incubated with target cells at the indicated ratios for 4 hours in triplicate at 37° C. in a tissue culture incubator with 5% CO2, and the samples were analyzed by flow cytometry (Attune NXT, Invitrogen) in 96 well plates. The CV-positive NK cells were gated out for analysis. Percent lysis was calculated according to the equation below: […]
Referring to FIG. 11, expanded NK cells (K562 cells expressing mbIL-21) were treated with TGF-beta (5 ng/mL), galunisertib, or a combination thereof for 72 hours. […] That drop can be rescued and reversed by co-administering NK cells with galunisertib (middle and right bars), in which case killing efficacy was improved by about 10%.

With `Cc1cccc(-c2nn3c(c2-c2ccnc4ccc(C(N)=O)cc24)CCC3)n1` [galunisertib] the “improvement of killing efficacy” value was “about 10%”.

Source: patent US12060577B2, “Compositions for expanding natural killer cells” (CASE WESTERN RESERVE UNIVERSITY, priority 2017, dated 2024)
